Assay results as given in publication PMC10094617, “Iron(III) Complexes with Non-Steroidal Anti-Inflammatory Drugs: Structure, Antioxidant and Anticholinergic Activity, and Interaction with Biomolecules” (International Journal of Molecular Sciences, 2023).

How the values were obtained:
[1] = biological target: T1, equine serum butyrylcholinesterase (eqBuChE) (Equus caballus, UniProt P81908); test: Inhibition of butyrylcholinesterase (modified Ellman's method); assay type: biochemical; details: for BuChE (I%) inhibition rate: 10^−3 M of the compound, pH 7.4, 37 °C; for SI (selectivity index = IBuChE/IAChE): ratio of inhibition rates at 10^−3 M
T1 construct: purchased J&K Scientific Co. (Beijing, China); host or cells: equine serum (by the product's name)
Procedure: In the study of cholinesterase inhibitors, the inhibitory effect of the compounds (the NSAIDs and their complexes 1–3) against AChE and BuChE was examined using a modified methodology based on Ellman’s method.
The ability of the compounds to inhibit AChE and BuChE was evaluated using UV-vis spectroscopy. All the assays were carried out in a 0.1M NaH2PO4/Na2HPO4 buffer at a pH = 7.4. Enzyme solutions were prepared with 2.0 U/mL for AChE and 3.0 U/mL for BuChE. A reaction mixture containing 20 μL of phosphate buffer, 100 μL of DTNB (1-mM), and 40 μL of the enzyme (AChE and BuChE) was incubated with 20 μL of the compounds at various concentrations at 37 °C for 15 min. The reaction was started by the addition of the substrate (20-μL) of ATCI or BTCI solution (1-mM), respectively, and incubation for additional 3 min.
The enzyme activity was determined by measuring the increase in absorbance at 2-min intervals at 412 nm at 37 °C (ε = 14,150 M^−1cm^−1).
The rate of inhibition of each enzyme by the compounds was calculated according to the following expression:(1) I%=(1−VB/VA)×100 where VB and VA indicate the absorbance measured for ChEs in the presence and absence of inhibitors, respectively. […] Neostigmine methyl sulfate was used as the appropriate standard.

[2] = ABTS radical cation scavenging; assay type: biochemical; details: compound 0.1 mM; 1 min after mixing
Procedure: The antioxidant activity of complexes 1–3 was evaluated via their ability to scavenge the free radicals DPPH, hydroxyl, and ABTS. Each experiment was performed in triplicate and the standard deviation of absorbance was less than 10% of the mean.
Assay of radical cation scavenging activity (ABTS^+•): An ABTS cationic radical (ABTS^+•) was produced by reacting an aqueous stock solution (2 mM) of ABTS with 0.17-mM potassium persulfate and allowing the mixture to stand in the dark at room temperature for 12–16 h before use. […] Although the oxidation of ABTS commenced immediately, the absorbance became maximal and stable after 6 h. The radical was stable in this form for more than two days when stored in the dark at room temperature. The ABTS radical solution was diluted with ethanol to an absorbance of 0.70 at 734 nm. After the addition of 10 μL of complexes 1–3 or the standards (0.1 mM) in DMSO, the absorbance was recorded exactly 1 min after initial mixing. The radical scavenging activity of the complexes was expressed as the percentage inhibition of the absorbance of the initial ABTS solution (ABTS%). Trolox was used as a reference compound.

[3] = test system: EB–DNA adduct (CT DNA); test: EB-displacement from EB–DNA adduct (fluorescence emission); assay type: binding, calf; details: for KSV Stern–Volmer constant (EB–DNA): EB–DNA fluorescence; for relative EB–DNA fluorescence intensity (I/Io, %) remaining: λem = 592 nm, up to, % of the initial EB–DNA fluorescence; for Kq quenching constant of the EB–DNA fluorescence: τo = 23 ns
Procedure: EB-displacement studies: The competition of complexes 1–3 with EB was investigated by fluorescence emission spectroscopy in order to examine whether the complexes can displace EB from its DNA–EB conjugate. The DNA–EB conjugate was prepared by adding 20-μM EB and 26-μM CT DNA in the buffer solution (150-mM NaCl and 15-mM trisodium citrate at pH 7.0). The possible intercalating effect of the complexes was studied by the addition of a certain amount of a solution of the compound into a solution of the DNA–EB conjugate. The influence of each compound to the DNA–EB complex solution was obtained by recording the changes in the fluorescence emission spectra with the excitation wavelength (λex) at 540 nm.
The Stern–Volmer constant KSV is used to evaluate the quenching efficiency for each compound according to the Stern–Volmer equation (Equation (3)), where Io and I are the emission intensities in the absence and the presence of the quencher, respectively, and [Q] is the concentration of the quencher (i.e., complexes 1–3). The value of KSV is obtained from the Stern–Volmer plots by using the slope of the diagram Io/I versus [Q]. Taking τo = 23 ns as the fluorescence lifetime of the EB–DNA system, the EB–DNA quenching constants (Kq, in M^−1s^−1) of the compounds can be determined according to Equation (4).

T1 sequence (P81908 whole entry): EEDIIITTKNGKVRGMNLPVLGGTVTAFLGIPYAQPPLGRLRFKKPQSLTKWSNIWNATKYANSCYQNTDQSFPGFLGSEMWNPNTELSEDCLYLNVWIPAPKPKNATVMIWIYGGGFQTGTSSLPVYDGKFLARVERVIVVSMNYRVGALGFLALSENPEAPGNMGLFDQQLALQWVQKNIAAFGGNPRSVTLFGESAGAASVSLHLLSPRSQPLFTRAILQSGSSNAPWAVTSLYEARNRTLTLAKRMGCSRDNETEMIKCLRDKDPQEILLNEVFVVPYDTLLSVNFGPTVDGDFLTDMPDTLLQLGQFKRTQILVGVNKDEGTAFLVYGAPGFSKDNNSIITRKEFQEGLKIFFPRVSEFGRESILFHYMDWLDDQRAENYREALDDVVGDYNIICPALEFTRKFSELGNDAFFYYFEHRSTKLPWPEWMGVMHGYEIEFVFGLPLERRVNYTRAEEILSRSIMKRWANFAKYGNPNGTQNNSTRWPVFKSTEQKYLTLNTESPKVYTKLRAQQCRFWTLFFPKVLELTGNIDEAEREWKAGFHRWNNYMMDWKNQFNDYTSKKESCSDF

Substance	BuChE (I%) inhibition rate [1]	SI (selectivity index = IBuChE/IAChE) [1]	ABTS% (ABTS radical scavenging activity) [2]	KSV Stern–Volmer constant (EB–DNA) [3]	relative EB–DNA fluorescence intensity (I/Io, %) remaining [3]	Kq quenching constant of the EB–DNA fluorescence [3]	ΔI/Io (%) EB–DNA fluorescence quenching ([3]; [EB] = 20 μM, [DNA] = 26 μM, λex 540 nm, λem 592 nm)
[Fe3O(dicl)6(py)3]Cl∙py [Complex 2]	74.36 ± 1.40%	20.89	85.39 ± 0.52%	6.15 (±0.29) × 10^5 M^−1	41.8%	2.68 (±0.56) × 10^13 M^−1s^−1	–
[Fe3O(dicl)6(MeOH)3][FeCl4]·Hdicl·1.5MeOH∙H2O [Complex 3]	76.65 ± 1.95%	21.59	87.72 ± 0.36%	1.53 (±0.51) × 10^6 M^−1	25.7%	6.66 (±0.23) × 10^13 M^−1s^−1	74.3%
